Earlier results in patent publication US11559637B2, “Inhalers and related methods” (Norton (Waterford) Limited, priority 2017, dated 2023).

surface tension (as liquid at 25° C.): about 8 mN/m
vapor pressure (at 20° C.): 572 kpa
Compound: FCC(F)(F)F [HFA134a, 1,1,1,2-tetrafluoroethane]
